Assay [1] deals with T1, Tissue alpha-L-fucosidase (Bos taurus, UniProt Q2KIM0).
T1 sequence (Q2KIM0 whole entry): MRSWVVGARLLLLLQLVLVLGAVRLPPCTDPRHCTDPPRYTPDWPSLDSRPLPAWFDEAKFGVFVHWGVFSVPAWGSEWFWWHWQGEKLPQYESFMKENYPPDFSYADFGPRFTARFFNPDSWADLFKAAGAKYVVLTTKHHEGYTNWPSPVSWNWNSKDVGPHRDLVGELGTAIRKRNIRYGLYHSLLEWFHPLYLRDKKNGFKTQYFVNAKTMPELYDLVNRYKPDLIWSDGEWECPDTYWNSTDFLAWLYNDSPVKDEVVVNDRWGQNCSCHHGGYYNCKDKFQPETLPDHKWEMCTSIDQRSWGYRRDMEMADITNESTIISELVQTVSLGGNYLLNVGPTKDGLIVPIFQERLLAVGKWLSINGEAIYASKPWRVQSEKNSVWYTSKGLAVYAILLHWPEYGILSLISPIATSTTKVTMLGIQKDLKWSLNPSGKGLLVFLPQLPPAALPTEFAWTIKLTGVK
The assay is described as follows: Ki value against bovine alpha-L-fucosidase.

Assay [2] has as its target T2, Beta-galactosidase (Bos taurus) (UniProt Q58D55).
T2 sequence (whole entry): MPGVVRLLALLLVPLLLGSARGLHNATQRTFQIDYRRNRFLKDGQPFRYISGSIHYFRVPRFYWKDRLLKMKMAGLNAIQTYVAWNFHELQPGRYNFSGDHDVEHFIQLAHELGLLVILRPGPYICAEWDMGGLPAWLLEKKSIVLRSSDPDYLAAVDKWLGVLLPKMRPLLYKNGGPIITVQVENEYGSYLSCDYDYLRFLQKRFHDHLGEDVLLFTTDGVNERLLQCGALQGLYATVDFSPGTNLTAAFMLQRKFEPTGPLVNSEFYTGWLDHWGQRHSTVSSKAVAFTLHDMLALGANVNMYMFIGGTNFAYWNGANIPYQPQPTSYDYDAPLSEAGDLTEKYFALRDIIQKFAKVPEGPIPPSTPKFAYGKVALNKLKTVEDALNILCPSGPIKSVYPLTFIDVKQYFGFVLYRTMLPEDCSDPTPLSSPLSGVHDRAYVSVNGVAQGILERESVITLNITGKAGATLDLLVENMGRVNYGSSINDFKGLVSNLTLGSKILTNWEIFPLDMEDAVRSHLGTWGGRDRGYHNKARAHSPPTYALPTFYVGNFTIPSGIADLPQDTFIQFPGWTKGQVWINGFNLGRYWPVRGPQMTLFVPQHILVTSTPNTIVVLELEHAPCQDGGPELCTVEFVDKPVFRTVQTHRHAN
The assay is described as follows: Percent inhibition of beta-galactosidase of bovine liver at 1000 uM.

Assay [3] concerns the target Alpha-galactosidase (Coffea arabica) (UniProt Q5DUH8). As to conditions: 1000 uM.
Assay [4] addresses T3, Alpha-galactosidase C (Aspergillus niger) (UniProt Q9UUZ4).
T3 sequence (whole entry): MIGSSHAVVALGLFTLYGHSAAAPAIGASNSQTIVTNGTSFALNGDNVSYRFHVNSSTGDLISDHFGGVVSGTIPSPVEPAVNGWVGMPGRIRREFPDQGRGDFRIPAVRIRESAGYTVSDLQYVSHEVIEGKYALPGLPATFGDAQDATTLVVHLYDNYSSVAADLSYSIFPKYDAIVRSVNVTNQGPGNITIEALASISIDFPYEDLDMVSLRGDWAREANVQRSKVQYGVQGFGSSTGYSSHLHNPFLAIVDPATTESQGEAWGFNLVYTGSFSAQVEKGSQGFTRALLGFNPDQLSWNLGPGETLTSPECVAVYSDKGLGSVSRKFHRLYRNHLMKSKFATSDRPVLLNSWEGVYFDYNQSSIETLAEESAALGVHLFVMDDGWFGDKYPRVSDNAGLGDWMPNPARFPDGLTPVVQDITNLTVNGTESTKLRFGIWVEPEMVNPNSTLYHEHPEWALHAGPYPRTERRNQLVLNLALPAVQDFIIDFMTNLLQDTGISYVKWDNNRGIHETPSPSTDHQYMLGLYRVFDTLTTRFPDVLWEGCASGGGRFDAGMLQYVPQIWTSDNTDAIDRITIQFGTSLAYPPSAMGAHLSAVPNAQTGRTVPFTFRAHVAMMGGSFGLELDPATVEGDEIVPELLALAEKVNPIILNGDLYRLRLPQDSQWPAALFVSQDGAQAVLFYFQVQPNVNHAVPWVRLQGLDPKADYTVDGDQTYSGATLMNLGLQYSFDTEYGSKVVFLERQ
Kind of assay: Percent inhibition of alpha-galactosidase of Aspergillus niger at 1000 uM.

The target in assay [5] is T4, Beta-galactosidase (Rattus norvegicus) (UniProt D3ZUM4).
T4 sequence (whole entry): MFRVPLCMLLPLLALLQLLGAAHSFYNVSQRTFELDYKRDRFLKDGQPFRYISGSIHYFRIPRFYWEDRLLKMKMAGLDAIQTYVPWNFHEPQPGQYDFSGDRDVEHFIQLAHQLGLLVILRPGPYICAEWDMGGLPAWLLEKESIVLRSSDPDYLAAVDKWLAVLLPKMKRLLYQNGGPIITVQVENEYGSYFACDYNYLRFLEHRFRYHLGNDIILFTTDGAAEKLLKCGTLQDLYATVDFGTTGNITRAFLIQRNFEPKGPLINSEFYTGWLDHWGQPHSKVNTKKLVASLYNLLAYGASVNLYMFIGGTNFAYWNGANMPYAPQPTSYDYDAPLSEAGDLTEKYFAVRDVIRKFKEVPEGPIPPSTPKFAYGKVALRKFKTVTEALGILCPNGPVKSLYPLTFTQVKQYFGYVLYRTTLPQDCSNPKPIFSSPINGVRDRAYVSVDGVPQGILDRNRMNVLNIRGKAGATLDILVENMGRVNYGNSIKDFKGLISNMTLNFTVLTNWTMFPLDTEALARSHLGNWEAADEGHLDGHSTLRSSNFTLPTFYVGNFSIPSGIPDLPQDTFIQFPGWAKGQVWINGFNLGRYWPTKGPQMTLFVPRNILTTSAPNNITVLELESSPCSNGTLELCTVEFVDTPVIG
Kind of assay: Percent inhibition of beta-galactosidase of rat epididymis at 1000 uM.

In assay [6] the target is Sucrase-isomaltase, intestinal (Rattus norvegicus) (UniProt P23739). As to conditions: 1000 uM.
Sucrase-isomaltase, intestinal (Rattus norvegicus), sequence (P23739 1-1013 limits assumed): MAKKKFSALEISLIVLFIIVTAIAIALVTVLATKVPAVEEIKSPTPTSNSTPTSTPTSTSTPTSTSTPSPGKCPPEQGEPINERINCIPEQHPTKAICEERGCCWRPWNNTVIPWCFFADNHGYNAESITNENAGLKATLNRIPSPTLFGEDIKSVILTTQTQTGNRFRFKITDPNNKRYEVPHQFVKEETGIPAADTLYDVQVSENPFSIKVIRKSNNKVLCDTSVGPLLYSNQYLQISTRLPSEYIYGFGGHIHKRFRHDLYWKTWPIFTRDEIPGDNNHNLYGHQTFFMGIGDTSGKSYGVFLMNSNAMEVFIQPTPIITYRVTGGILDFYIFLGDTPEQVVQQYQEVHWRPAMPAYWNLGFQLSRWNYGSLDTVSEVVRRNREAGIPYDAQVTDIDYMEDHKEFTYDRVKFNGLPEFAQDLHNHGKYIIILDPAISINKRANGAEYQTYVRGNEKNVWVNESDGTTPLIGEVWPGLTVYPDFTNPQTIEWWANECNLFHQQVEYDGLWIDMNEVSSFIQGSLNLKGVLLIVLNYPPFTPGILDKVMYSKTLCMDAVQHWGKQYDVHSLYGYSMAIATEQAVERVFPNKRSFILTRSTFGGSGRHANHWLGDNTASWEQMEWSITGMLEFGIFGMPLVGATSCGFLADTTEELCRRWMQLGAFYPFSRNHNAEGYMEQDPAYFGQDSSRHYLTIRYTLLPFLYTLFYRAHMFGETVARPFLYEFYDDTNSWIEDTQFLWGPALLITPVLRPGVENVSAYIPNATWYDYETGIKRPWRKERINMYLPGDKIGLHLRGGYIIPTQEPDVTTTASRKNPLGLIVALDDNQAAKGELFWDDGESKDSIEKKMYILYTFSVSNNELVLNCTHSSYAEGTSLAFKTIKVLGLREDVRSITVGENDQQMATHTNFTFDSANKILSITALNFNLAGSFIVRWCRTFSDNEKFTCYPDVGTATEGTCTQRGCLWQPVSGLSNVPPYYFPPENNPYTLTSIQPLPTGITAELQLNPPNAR
Sucrase-isomaltase, intestinal (Rattus norvegicus), sequence (P23739 1014-1841 limits assumed): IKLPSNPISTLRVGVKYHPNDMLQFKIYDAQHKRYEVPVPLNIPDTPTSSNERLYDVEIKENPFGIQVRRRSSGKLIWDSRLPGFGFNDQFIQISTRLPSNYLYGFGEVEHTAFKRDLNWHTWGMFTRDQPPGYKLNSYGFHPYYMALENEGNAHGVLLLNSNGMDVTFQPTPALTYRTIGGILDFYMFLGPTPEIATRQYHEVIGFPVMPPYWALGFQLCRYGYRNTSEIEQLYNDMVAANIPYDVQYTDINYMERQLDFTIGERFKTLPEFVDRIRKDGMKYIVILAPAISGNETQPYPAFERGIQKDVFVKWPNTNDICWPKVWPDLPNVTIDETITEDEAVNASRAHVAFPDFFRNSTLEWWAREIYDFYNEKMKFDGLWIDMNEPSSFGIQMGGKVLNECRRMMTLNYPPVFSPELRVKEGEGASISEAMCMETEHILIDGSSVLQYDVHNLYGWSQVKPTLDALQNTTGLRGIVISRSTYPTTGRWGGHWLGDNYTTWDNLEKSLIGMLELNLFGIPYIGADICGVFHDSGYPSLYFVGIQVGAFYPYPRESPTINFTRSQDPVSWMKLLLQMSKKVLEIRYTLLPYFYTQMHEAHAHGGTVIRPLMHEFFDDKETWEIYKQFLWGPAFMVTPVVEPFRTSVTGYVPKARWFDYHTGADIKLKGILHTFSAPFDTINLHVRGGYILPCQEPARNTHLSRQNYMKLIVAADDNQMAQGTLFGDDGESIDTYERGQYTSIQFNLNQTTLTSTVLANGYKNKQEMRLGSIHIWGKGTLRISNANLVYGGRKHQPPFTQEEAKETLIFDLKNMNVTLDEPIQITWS
Assay [7] has as its target T5, Beta-mannosidase (Rattus norvegicus) (UniProt Q4FZV0).
T5 sequence (whole entry): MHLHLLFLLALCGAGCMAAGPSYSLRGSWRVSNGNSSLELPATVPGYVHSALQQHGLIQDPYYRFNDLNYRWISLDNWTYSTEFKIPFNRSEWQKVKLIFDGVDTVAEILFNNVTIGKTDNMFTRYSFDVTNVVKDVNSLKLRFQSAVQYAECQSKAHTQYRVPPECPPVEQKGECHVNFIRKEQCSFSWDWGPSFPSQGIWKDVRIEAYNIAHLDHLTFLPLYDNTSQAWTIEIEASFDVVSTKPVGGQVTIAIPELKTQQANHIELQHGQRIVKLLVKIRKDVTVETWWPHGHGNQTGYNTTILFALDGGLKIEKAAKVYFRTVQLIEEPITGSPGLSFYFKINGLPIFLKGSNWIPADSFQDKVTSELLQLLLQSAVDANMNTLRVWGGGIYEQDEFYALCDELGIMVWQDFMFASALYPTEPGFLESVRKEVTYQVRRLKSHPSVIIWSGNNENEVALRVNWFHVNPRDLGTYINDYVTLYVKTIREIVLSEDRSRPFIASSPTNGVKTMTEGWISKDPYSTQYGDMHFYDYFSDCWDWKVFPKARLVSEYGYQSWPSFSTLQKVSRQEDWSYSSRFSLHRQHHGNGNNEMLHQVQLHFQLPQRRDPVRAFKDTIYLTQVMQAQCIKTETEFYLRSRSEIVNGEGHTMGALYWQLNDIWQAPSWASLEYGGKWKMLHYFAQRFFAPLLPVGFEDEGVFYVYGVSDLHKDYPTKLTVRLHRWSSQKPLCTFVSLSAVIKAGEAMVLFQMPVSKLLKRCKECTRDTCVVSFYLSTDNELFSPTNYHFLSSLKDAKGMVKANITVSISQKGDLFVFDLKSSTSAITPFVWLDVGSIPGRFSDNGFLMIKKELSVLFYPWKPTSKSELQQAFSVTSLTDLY
The assay is described as follows: Percent inhibition of beta-mannosidase of rat epididymis at 1000 uM.

Assay [8] addresses T6, Tissue alpha-L-fucosidase (Bos taurus) (UniProt Q2KIM0).
T6 sequence (whole entry): T1 sequence (Q2KIM0 whole entry)
As to conditions: 1000 uM.

Each structure is given as a SMILES string.

Alpha-galactosidase (Coffea arabica), sequence (Q5DUH8 as listed by the source): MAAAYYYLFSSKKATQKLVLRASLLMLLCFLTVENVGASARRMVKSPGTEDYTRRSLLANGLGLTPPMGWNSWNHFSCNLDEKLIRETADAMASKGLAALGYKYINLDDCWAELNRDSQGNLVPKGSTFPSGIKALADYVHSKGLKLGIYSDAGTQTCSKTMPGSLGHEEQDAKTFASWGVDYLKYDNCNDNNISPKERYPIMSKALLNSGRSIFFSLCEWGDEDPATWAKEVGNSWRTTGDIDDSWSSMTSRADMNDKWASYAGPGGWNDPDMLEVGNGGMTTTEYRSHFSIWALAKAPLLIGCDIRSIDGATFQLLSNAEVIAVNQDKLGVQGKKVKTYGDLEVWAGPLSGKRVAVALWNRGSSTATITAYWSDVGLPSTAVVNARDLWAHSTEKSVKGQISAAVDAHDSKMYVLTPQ

For orientation: Ki means the equilibrium dissociation constant of an inhibitor or competing ligand from its target. Read a high Ki as weaker binding. In turn, `C[C@@H]1NC[C@@H](O)[C@H](O)[C@@H]1O` [DEOXYFUCONOJIRIMYCIN] had a Ki in assay [1] of 1.7 nM. That is a single-digit nanomolar value.

Usually inhibition stands for the percentage by which the read-out fell short of the control. As to `OC[C@H]1NC[C@@H](O)[C@H](O)[C@@H]1O`, the inhibition in assay [2], in assay [3], in assay [4], in assay [5] and in assay [6] was less than 50% throughout.

Take `OC[C@@H]1NC[C@H](O)[C@@H](O)[C@H]1O`: the inhibition in assay [2], in assay [3], in assay [7], in assay [4], in assay [5] and in assay [8] was less than 50% in each case. In addition, the inhibition in assay [6] was less than 50%.
